Test results as given in patent US12538924B2, “Pesticidally active heterocyclic derivatives with sulfur containing substituents” (SYNGENTA CROP PROTECTION AG, priority 2019, dated 2026).

Columns and labels:
Type in all cases: in vivo
[1] = tested on: Bemisia tabaci (Cotton White Fly); assay: Bemisia tabaci (Cotton White Fly): Feeding/Contact Activity; conditions: foliar, 144 h, application rate of 200 ppm, adult white flies on sprayed cotton leaf discs, 6 days after incubation
Description: Example B1: Bemisia tabaci (Cotton White Fly): Feeding/Contact Activity
Cotton leaf discs were placed on agar in 24-well microtiter plates and sprayed with aqueous test solutions prepared from 10'000 ppm DMSO stock solutions. After drying the leaf discs were infested with adult white flies. The samples were checked for mortality 6 days after incubation.

[2] = tested on: Spodoptera littoralis (Egyptian Cotton Leaf Worm); assay: Spodoptera littoralis (Egyptian Cotton Leaf Worm), sprayed cotton leaf discs; conditions: foliar, 72 h, application rate of 200 ppm, L1 larvae on sprayed cotton leaf discs, 3 days after infestation, read-out: control (mortality, anti-feeding effect or growth inhibition)
Description: Example B8: Spodoptera littoralis (Egyptian Cotton Leaf Worm)
Cotton leaf discs were placed onto agar in 24-well microtiter plates and sprayed with aqueous test solutions prepared from 10'000 ppm DMSO stock solutions. After drying the leaf discs were infested with five L1 larvae. The samples were assessed for mortality, anti-feeding effect, and growth inhibition in comparison to untreated samples 3 days after infestation. Control of Spodoptera littoralis by a test sample is given when at least one of the categories mortality, anti-feedant effect, and growth inhibition is higher than the untreated sample.

[3] = tested on: Plutella xylostella (Diamond Back Moth); assay: Plutella xylostella (Diamond Back Moth), treated artificial diet; conditions: 192 h, application rate of 200 ppm, eggs on treated artificial diet, 8 days after infestation, read-out: effect in at least one of the two categories (mortality or growth inhibition)
Description: Example B5: Plutella xylostella (Diamond Back Moth)
24-well microtiter plates with artificial diet were treated with aqueous test solutions prepared from 10'000 ppm DMSO stock solutions by pipetting. After drying, Plutella eggs were pipetted through a plastic stencil onto a gel blotting paper and the plate was closed with it. The samples were assessed for mortality and growth inhibition in comparison to untreated samples 8 days after infestation.

[4] = tested on: Myzus persicae (Green Peach Aphid); assay: Myzus persicae (Green Peach Aphid): Feeding/Contact Activity; conditions: foliar, 144 h, application rate of 200 ppm, aphid population of mixed ages on sprayed sunflower leaf discs, 6 days after infestation
Description: Example B6: Myzus persicae (Green Peach Aphid): Feeding/Contact Activity
Sunflower leaf discs were placed onto agar in a 24-well microtiter plate and sprayed with aqueous test solutions prepared from 10'000 ppm DMSO stock solutions. After drying, the leaf discs were infested with an aphid population of mixed ages. The samples were assessed for mortality 6 days after infestation.

[5] = tested on: Diabrotica Balteata (Corn Root Worm); assay: Diabrotica balteata (Corn Root Worm), sprayed maize sprouts; conditions: 96 h, application rate of 200 ppm, L2 larvae on sprayed maize sprouts, 4 days after infestation, read-out: effect in at least one of the two categories (mortality or growth inhibition)
Description: Example B2: Diabrotica Balteata (Corn Root Worm)
Maize sprouts placed onto an agar layer in 24-well microtiter plates were treated with aqueous test solutions prepared from 10'000 ppm DMSO stock solutions by spraying. After drying, the plates were infested with L2 larvae (6 to 10 per well). The samples were assessed for mortality and growth inhibition in comparison to untreated samples 4 days after infestation.

[6] = tested on: Myzus persicae (Green Peach Aphid); assay: Myzus persicae (Green Peach Aphid): Systemic Activity; conditions: 144 h, test rate of 24 ppm, roots of infested pea seedlings placed into test solutions, 6 days
Description: Example B7: Myzus persicae (Green Peach Aphid): Systemic Activity
Roots of pea seedlings infested with an aphid population of mixed ages were placed directly into aqueous test solutions prepared from 10'000 DMSO stock solutions. The samples were assessed for mortality 6 days after placing seedlings into test solutions.

[7] = tested on: Euschistus heros (Neotropical Brown Stink Bug); assay: Euschistus heros (Neotropical Brown Stink Bug), sprayed soybean leaves; conditions: 120 h, application rate of 200 ppm, N2 nymphs on sprayed soybean leaves, 5 days after infestation, read-out: effect in at least one of the two categories (mortality or growth inhibition)
Description: Example B3: Euschistus heros (Neotropical Brown Stink Bug)
Soybean leaves on agar in 24-well microtiter plates were sprayed with aqueous test solutions prepared from 10'000 ppm DMSO stock solutions. After drying the leaves were infested with N2 nymphs. The samples were assessed for mortality and growth inhibition in comparison to untreated samples 5 days after infestation.

CCS(=O)(=O)c1cc(Br)cnc1N1Cc2cnc(C(F)(F)F)cc2C1=O [Compound P7, 2-(5-bromo-3-ethylsulfonyl-2-pyridyl)-6-(trifluoromethyl)-3H-pyrrolo[3,4-c]pyridin-1-one]
≥ 80%: mortality at 200 ppm [1] | percent control (mortality, anti-feedant effect or growth inhibition) at 200 ppm [2] | percent effect (mortality or growth inhibition) at 200 ppm [3] | mortality at 200 ppm [4] | percent effect (mortality or growth inhibition) at 200 ppm [5]

CCS(=O)(=O)c1cc(C2CC2)cnc1N1Cc2cnc(C(F)(F)F)cc2C1=O [Compound P14, 2-(5-cyclopropyl-3-ethylsulfonyl-2-pyridyl)-6-(trifluoromethyl)-3H-pyrrolo[3,4-c]pyriclin-1-one]
≥ 80%: mortality at 24 ppm [6] | percent control (mortality, anti-feedant effect or growth inhibition) at 200 ppm [2] | percent effect (mortality or growth inhibition) at 200 ppm [3] | mortality at 200 ppm [4] | percent effect (mortality or growth inhibition) at 200 ppm [5] | percent effect (mortality or growth inhibition) at 200 ppm [7]

CCS(=O)(=O)c1ccc(C2CC2)nc1N1Cc2cnc(C(F)(F)F)cc2C1=O [Compound P15, 2-(6-cyclopropyl-3-ethylsulfonyl-2-pyridyl)-6-(trifluoromethyl)-3H-pyrrolo[3,4-c]pyriclin-1-one]
≥ 80%: mortality at 24 ppm [6] | percent control (mortality, anti-feedant effect or growth inhibition) at 200 ppm [2] | percent effect (mortality or growth inhibition) at 200 ppm [3] | mortality at 200 ppm [4] | percent effect (mortality or growth inhibition) at 200 ppm [5] | percent effect (mortality or growth inhibition) at 200 ppm [7]

CCS(=O)(=O)c1ccc(-c2ncccn2)nc1N1Cc2cnc(C(F)(F)F)cc2C1=O [Compound P16, 2-(3-ethylsulfonyl-6-pyrimidin-2-yl-2-pyridyl)-6-(trifluoromethyl)-3H-pyrrolo[3,4-c]pyriclin-1-one]
≥ 80%: mortality at 24 ppm [6] | percent control (mortality, anti-feedant effect or growth inhibition) at 200 ppm [2] | percent effect (mortality or growth inhibition) at 200 ppm [3] | mortality at 200 ppm [4] | percent effect (mortality or growth inhibition) at 200 ppm [5] | percent effect (mortality or growth inhibition) at 200 ppm [7]

CCS(=O)(=O)c1ccc(N2CCOC2=O)nc1N1Cc2cnc(C(F)(F)F)cc2C1=O [Compound P17, 3-[5-ethylsulfonyl-6-[1-oxo-6-(trifluoromethyl)-3H-pyrrolo[3,4-c]pyridin-2-yl]-2-pyridyl]oxazolidin-2-one]
≥ 80%: mortality at 24 ppm [6] | percent control (mortality, anti-feedant effect or growth inhibition) at 200 ppm [2] | percent effect (mortality or growth inhibition) at 200 ppm [3] | mortality at 200 ppm [4] | percent effect (mortality or growth inhibition) at 200 ppm [5]

CCC(=O)N(C)c1ccc(S(=O)(=O)CC)c(N2Cc3cnc(C(F)(F)F)cc3C2=O)n1 [Compound P19, N-[5-ethylsulfonyl-6-[1-oxo-6-(trifluoromethyl)-3H-pyrrolo[3,4-c]pyridin-2-yl]-2-pyridyl]-N-methyl-propanamide]
≥ 80%: mortality at 24 ppm [6] | percent control (mortality, anti-feedant effect or growth inhibition) at 200 ppm [2] | percent effect (mortality or growth inhibition) at 200 ppm [3] | mortality at 200 ppm [4] | percent effect (mortality or growth inhibition) at 200 ppm [5] | percent effect (mortality or growth inhibition) at 200 ppm [7]

CCS(=O)(=O)c1ccc(N(C)C(C)=O)nc1N1Cc2cnc(C(F)(F)F)cc2C1=O [Compound P20, N-[5-ethylsulfonyl-6-[1-oxo-6-(trifluoromethyl)-3H-pyrrolo[3,4-c]pyridin-2-yl]-2-pyridyl]-N-methyl-acetamide]
≥ 80%: mortality at 24 ppm [6] | percent control (mortality, anti-feedant effect or growth inhibition) at 200 ppm [2] | percent effect (mortality or growth inhibition) at 200 ppm [3] | mortality at 200 ppm [4] | percent effect (mortality or growth inhibition) at 200 ppm [5] | percent effect (mortality or growth inhibition) at 200 ppm [7]

CCS(=O)(=O)c1cccnc1N1Cc2ccc(C(F)(F)F)cc2C1=O [Compound P21, 2-(3-ethylsulfonyl-2-pyridyl)-6-(trifluoromethyl)isoindolin-1-one]
≥ 80%: mortality at 200 ppm [1] | mortality at 24 ppm [6] | percent control (mortality, anti-feedant effect or growth inhibition) at 200 ppm [2] | percent effect (mortality or growth inhibition) at 200 ppm [3] | mortality at 200 ppm [4] | percent effect (mortality or growth inhibition) at 200 ppm [5] | percent effect (mortality or growth inhibition) at 200 ppm [7]

CCS(=O)(=O)c1cccnc1N1Cc2ncc(C(F)(F)F)cc2C1=O [Compound P22, 6-(3-ethylsulfonyl-2-pyridyl)-3-(trifluoromethyl)-7H-pyrrolo[3,4-b]pyridin-5-one]
≥ 80%: mortality at 24 ppm [6] | percent control (mortality, anti-feedant effect or growth inhibition) at 200 ppm [2] | percent effect (mortality or growth inhibition) at 200 ppm [3] | mortality at 200 ppm [4] | percent effect (mortality or growth inhibition) at 200 ppm [5]

CCS(=O)(=O)c1cccnc1N1Cc2ccc(S(=O)(=O)C(F)(F)F)cc2C1=O [Compound P23, 2-(3-ethylsulfonyl-2-pyridyl)-6-(trifluoromethylsulfonyl)isoindolin-1-one]
≥ 80%: mortality at 200 ppm [1] | mortality at 24 ppm [6] | percent control (mortality, anti-feedant effect or growth inhibition) at 200 ppm [2] | percent effect (mortality or growth inhibition) at 200 ppm [3] | mortality at 200 ppm [4] | percent effect (mortality or growth inhibition) at 200 ppm [5] | percent effect (mortality or growth inhibition) at 200 ppm [7]

CCS(=O)(=O)c1cccnc1N1Cc2ccc(OC(F)(F)F)cc2C1=O [Compound P24, 2-(3-ethylsulfonyl-2-pyridyl)-6-(trifluoromethoxy)isoindolin-1-one]
≥ 80%: percent control (mortality, anti-feedant effect or growth inhibition) at 200 ppm [2] | percent effect (mortality or growth inhibition) at 200 ppm [3] | mortality at 200 ppm [4] | percent effect (mortality or growth inhibition) at 200 ppm [5]

CCS(=O)(=O)c1cc(C2(C#N)CC2)cnc1N1Cc2ccc(OC(F)(F)F)cc2C1=O [Compound P25, 1-[5-ethylsulfonyl-6-[1-oxo-6-(trifluoromethoxy)isoindolin-2-yl]-3-pyridyl]cyclopropanecarbonitrile]
≥ 80%: mortality at 200 ppm [1] | percent control (mortality, anti-feedant effect or growth inhibition) at 200 ppm [2] | percent effect (mortality or growth inhibition) at 200 ppm [3] | mortality at 200 ppm [4] | percent effect (mortality or growth inhibition) at 200 ppm [5] | percent effect (mortality or growth inhibition) at 200 ppm [7]

CCS(=O)(=O)c1cc(C2(C#N)CC2)cnc1N1Cc2ccc(C(F)(F)F)cc2C1=O [Compound P26]
≥ 80%: mortality at 200 ppm [1] | percent control (mortality, anti-feedant effect or growth inhibition) at 200 ppm [2] | percent effect (mortality or growth inhibition) at 200 ppm [3] | mortality at 200 ppm [4] | percent effect (mortality or growth inhibition) at 200 ppm [5] | percent effect (mortality or growth inhibition) at 200 ppm [7]

CCS(=O)(=O)c1cc(C(C)(C)C#N)cnc1N1Cc2ncc(C(F)(F)F)cc2C1=O [Compound P27, 2-[5-ethylsulfonyl-6-[5-oxo-3-(trifluoromethyl)-7H-pyrrolo[3,4-b]pyridin-6-yl]-3-pyridyl]-2-methyl-propanenitrile]
≥ 80%: mortality at 200 ppm [1] | mortality at 24 ppm [6] | percent control (mortality, anti-feedant effect or growth inhibition) at 200 ppm [2] | percent effect (mortality or growth inhibition) at 200 ppm [3] | percent effect (mortality or growth inhibition) at 200 ppm [5]
